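GI50: concentration for 50% inhibition of growth. TGI: concentration producing complete growth inhibition.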
Key:
Assay in all cases: growth of human tumour cells (NCI), 384-well format
NCI-H522 lung = test system: NCI-H522 lung
HCC-2998 colon = test system: HCC-2998 colon
HOP-92 NSCLC = test system: HOP-92 NSCLC
MALME-3M melanoma = test system: MALME-3M melanoma
SK-MEL-5 melanoma = test system: SK-MEL-5 melanoma
RXF 393 renal = test system: RXF 393 renal
NCI-H23 lung = test system: NCI-H23 lung
DU-145 prostate = test system: DU-145 prostate
OVCAR-5 ovarian = test system: OVCAR-5 ovarian
UACC-257 melanoma = test system: UACC-257 melanoma
MCF7 breast = test system: MCF7 breast
HT29 colon = test system: HT29 colon
ACHN renal = test system: ACHN renal
EKVX NSCLC = test system: EKVX NSCLC
CAKI-1 renal = test system: CAKI-1 renal
U251 glioblastoma = test system: U251 glioblastoma
MDA-MB-435 melanoma = test system: MDA-MB-435 melanoma
HCT-116 colon = test system: HCT-116 colon
LOX IMVI melanoma = test system: LOX IMVI melanoma
CCRF-CEM leukemia = test system: CCRF-CEM leukemia
HS 578T breast = test system: HS 578T breast
RPMI-8226 leukemia = test system: RPMI-8226 leukemia
IGROV1 ovarian = test system: IGROV1 ovarian
SNB-19 CNS = test system: SNB-19 CNS
SNB-75 CNS = test system: SNB-75 CNS
SN12C renal = test system: SN12C renal
HL-60(TB) leukemia = test system: HL-60(TB) leukemia
T-47D breast = test system: T-47D breast
OVCAR-3 ovarian = test system: OVCAR-3 ovarian
NCI-H460 NSCLC = test system: NCI-H460 NSCLC
TK-10 renal = test system: TK-10 renal
COLO 205 colon = test system: COLO 205 colon
K-562 leukemia = test system: K-562 leukemia
M14 melanoma = test system: M14 melanoma
SK-MEL-2 melanoma = test system: SK-MEL-2 melanoma
UACC-62 melanoma = test system: UACC-62 melanoma
MDA-MB-468 breast = test system: MDA-MB-468 breast
MOLT-4 leukemia = test system: MOLT-4 leukemia
786-0 renal = test system: 786-0 renal
HCT-15 colon = test system: HCT-15 colon

O=C1CCc2c(Oc3ccc4c(c3)[C@H]3[C@@H](O4)[C@@H]3c3nc4ccc(C(F)(F)F)cc4[nH]3)ccnc2N1
GI50 (NCI-H522 lung): 0.154 µM
TGI (NCI-H522 lung): 0.292 µM
GI50 (HCC-2998 colon): 1.2 µM
TGI (HCC-2998 colon): 5.98 µM
GI50 (HOP-92 NSCLC): 1.65 µM
TGI (HOP-92 NSCLC): 3.91 µM
TGI (MALME-3M melanoma): 0.0322 µM
GI50 (SK-MEL-5 melanoma): 0.0549 µM
TGI (SK-MEL-5 melanoma): 1.48 µM
GI50 (RXF 393 renal): 0.188 µM
TGI (RXF 393 renal): 0.331 µM
GI50 (NCI-H23 lung): 0.169 µM
TGI (NCI-H23 lung): 0.454 µM
GI50 (DU-145 prostate): 2.94 µM
TGI (DU-145 prostate): > 100 µM
GI50 (OVCAR-5 ovarian): 0.793 µM
TGI (OVCAR-5 ovarian): > 100 µM
GI50 (UACC-257 melanoma): 0.0436 µM
TGI (UACC-257 melanoma): 0.347 µM
GI50 (MCF7 breast): 0.294 µM
TGI (MCF7 breast): 1.17 µM
GI50 (HT29 colon): 0.206 µM
TGI (HT29 colon): > 100 µM
GI50 (ACHN renal): 0.241 µM
TGI (ACHN renal): 0.592 µM
GI50 (EKVX NSCLC): 1.64 µM
TGI (EKVX NSCLC): 8.38 µM
GI50 (CAKI-1 renal): 1.26 µM
TGI (CAKI-1 renal): > 100 µM
GI50 (U251 glioblastoma): 3.39 µM
TGI (U251 glioblastoma): > 100 µM
GI50 (MDA-MB-435 melanoma): 0.0302 µM
TGI (MDA-MB-435 melanoma): 0.169 µM
GI50 (HCT-116 colon): 0.494 µM
TGI (HCT-116 colon): 3.58 µM
GI50 (LOX IMVI melanoma): 0.113 µM
TGI (LOX IMVI melanoma): 0.256 µM
GI50 (CCRF-CEM leukemia): 1.2 µM
TGI (CCRF-CEM leukemia): 3.05 µM
GI50 (HS 578T breast): 1.6 µM
TGI (HS 578T breast): 7.13 µM
GI50 (RPMI-8226 leukemia): 0.166 µM
TGI (RPMI-8226 leukemia): 0.304 µM
GI50 (IGROV1 ovarian): 0.789 µM
TGI (IGROV1 ovarian): 7.13 µM
GI50 (SNB-19 CNS): 4.79 µM
TGI (SNB-19 CNS): > 100 µM
GI50 (SNB-75 CNS): 4.41 µM
TGI (SNB-75 CNS): > 100 µM
GI50 (SN12C renal): 2.08 µM
TGI (SN12C renal): > 100 µM
GI50 (HL-60(TB) leukemia): 0.0857 µM
TGI (HL-60(TB) leukemia): 0.21 µM
GI50 (T-47D breast): 1.69 µM
TGI (T-47D breast): 6.94 µM
GI50 (OVCAR-3 ovarian): 3.57 µM
TGI (OVCAR-3 ovarian): > 100 µM
GI50 (NCI-H460 NSCLC): 1.67 µM
TGI (NCI-H460 NSCLC): > 100 µM
GI50 (TK-10 renal): 1.83 µM
TGI (TK-10 renal): 8.27 µM
GI50 (COLO 205 colon): 0.018 µM
TGI (COLO 205 colon): 0.348 µM
GI50 (K-562 leukemia): 0.0201 µM
TGI (K-562 leukemia): 0.05 µM
GI50 (M14 melanoma): 0.0134 µM
TGI (M14 melanoma): 0.119 µM
GI50 (SK-MEL-2 melanoma): 0.258 µM
TGI (SK-MEL-2 melanoma): 1.21 µM
GI50 (UACC-62 melanoma): 0.0173 µM
TGI (UACC-62 melanoma): 0.119 µM
GI50 (MDA-MB-468 breast): 1.06 µM
TGI (MDA-MB-468 breast): 3.33 µM
GI50 (MOLT-4 leukemia): 1.14 µM
TGI (MOLT-4 leukemia): 2.38 µM
GI50 ([…]-0 renal): 3.17 µM
TGI (786-0 renal): > 100 µM
GI50 (HCT-15 colon): 2.42 µM
TGI (HCT-15 colon): > 100 µM
